Results from US9758527B2, “Cyclohexene derivative, preparation method therefor, and pharmaceutical composition for preventing or treating metabolic diseases, containing same as active ingredient” (HYUNDAI PHARM CO., LTD., priority 2014, dated 2017).
pEC50: −log10 of the molar value. Counter-ions that a name gives are not always drawn. Like-named read-outs stand apart in the source and are kept apart here.

Key:
[1] = Weight change in diet-induced obesity (DIO) rat model, 4-week administration; type: in vivo, male Sprague Dawley (SD) rats; settings: DIO rats, 4 weeks
Procedure: To simultaneously evaluate both the weight-loss and hypoglycemic effects of the cyclohexene derivative according to the present invention, experiments were carried out, as follows.
Specifically, male Sprague Dawley (SD) rats (approximately 4 weeks old) in a diet-induced obesity model were fed with a high-fat diet (Lab. Diet Co.) for approximately 10 weeks to induce high-fat diet-induced obesity (DIO). The rats undergoing the high-fat diet were randomly selected, and divided into groups (n=8) for respective administrations. The compounds of Comparative Examples 3 and 4 and Examples 48 and 119 were administered to the divided DIO rats each group for 4 weeks.
The weights of the DIO rats were measured twice a week during a period of administration of 4 weeks to record a change in the weights. At the end of the 4-week period of administration, a hypoglycemic effect was evaluated using an oral glucose tolerance test (OGTT), as follows.
FIG. 1 is a graph determining the changes in weights of rats after compounds of Example 48 and Comparative Examples 3 and 4 according to the present invention are administered to a diet-induced obesity (DIO) rat model for 4 weeks (In FIG. 1, the term “untreated group (Vehicle)” represents an untreated group in a high-fat DIO rat model; and the term “Lean” represents an untreated group in a normal SD rat model rather than a disease model).

[2] = test system: blood glucose level; experiment: Oral glucose tolerance test (OGTT) in high-fat diet model; type: in vivo; settings: hypoglycemic level, 20 mg/kg oral, glucose 2 g/kg oral after 30 minutes; for inhibition in vivo at 20 mg/kg: Mus musculus, 2 h, read-out: % AUC
Procedure: To evaluate in vivo effective effects of the cyclohexene derivatives according to the present invention, experiments were carried out, as follows.
Specifically, male C57BL/6J (C57 black 6) […] (8 to 10 weeks old) in a high-fat diet model were acclimated for at least 7 days, and only healthy rat populations were selected and subjected to an oral glucose tolerance test (OGTT). The rats were fasted for 12 to 15 hours, and then randomly divided into groups with five rats per group. Thereafter, each of the compounds of Examples 1, 14, 48, 69, 80, 118, 139, 147, 148, 169, 190, 199, 200, 204, 227, and Comparative Examples 1 and 2 according to the present invention was administered to the rats at a dose of 20 mg/kg. In this case, a vehicle (0.5%, carboxymethyl cellulose (CMC)) was administered as an untreated group, and the dose of the compound administered together with the vehicle was orally administered at 10 ml/kg. After 30 minutes of administration, glucose (2 g/kg) was orally administered at a dose of 10 ml/kg. A blood glucose level was measured using an Accu-Chek Active Strip (Rosche Diagnostic Co.). In this case, the glucose level in blood collected via caudal venipuncture was measured at time points of −30, 0, 20, 40, 60, and 120 minutes after glucose administration.
In Table 3, the unit “% AUC (area under the curve)” represents a hypoglycemic level.

[3] = in vivo; settings: female, Ihara's cataract rats (ICR), rat, po
Procedure: To evaluate acute toxicity of the cyclohexene derivative according to the present invention, experiments were carried out, as follows.
Five 7-week-old female Ihara's cataract rats (ICRs) were supplied by Nara Biotech Co. Ltd., housed in a breeding farm, and acclimated to new environments while being fed with general solid feeds and water. When the rats were 8 weeks old, experiments were carried out. Environmental conditions were maintained constant: a set temperature of 23±3° C., a humidity of 55±15%, an illuminance of 150 to 300 Lux, a ventilation rate of 10 to 20 times/hour, and a lighting time of 12 hours (light-dark cycle: lighting at 8 a.m. and lights-out at 8 p.m.). As the feeds, solid feeds for laboratory animals (5L79 Lab Diet, Purina Mills, Richmond, Ind., USA), which had been sterilized by exposure to radiation, were provided by Orientbio Inc. so that rats were allowed to freely consume the solid feeds. As the water, running water was disinfected using a UV sterilizer and an ultra-filtration system, and then provided o that rats were allowed to freely drink the water in a water bottle. Analyses of contaminants in the water and feeds were carried out according to the ChemOn Inc.'s standard operating procedure (SOP). […]

[4] = target: T1, G protein-coupled receptor 119 (GPR-119) (Mesocricetus auratus, UniProt A0A1U8CD06); experiment: Evaluation of cAMP activity in HIT-T15 cells (HTRF cAMP dynamic kit); type: cell-based, hamster; settings: cAMP activation
T1 construct: hamster-derived β-cells containing G protein-coupled receptor 119 (GPR-119), HIT-T15 cells; host or cells: HIT-T15 (hamster pancreatic β-cells)
T1 sequence (A0A1U8CD06 1-334): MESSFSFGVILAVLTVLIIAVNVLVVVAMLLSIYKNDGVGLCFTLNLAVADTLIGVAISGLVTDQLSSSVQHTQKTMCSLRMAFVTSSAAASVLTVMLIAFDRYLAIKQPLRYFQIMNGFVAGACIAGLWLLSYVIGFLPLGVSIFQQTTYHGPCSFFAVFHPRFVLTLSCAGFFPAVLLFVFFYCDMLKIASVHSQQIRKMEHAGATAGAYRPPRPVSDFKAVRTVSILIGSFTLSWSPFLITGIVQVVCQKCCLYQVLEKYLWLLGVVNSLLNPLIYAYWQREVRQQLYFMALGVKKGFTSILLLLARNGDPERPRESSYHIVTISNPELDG
Outline: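 HIT-T15 cells, 60,000/well, treated next day with compound at six concentrations ([…]) for 1 h at 37° C. Lysate cAMP quantified by HTRF competitive immunoassay (D2-cAMP, cryptate anti-cAMP); activity taken as change in FRET signal relative to DMSO.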

[5] = test system: NCI-H716 cells; experiment: Promotion of glucagon-like peptide-1 (GLP-1) secretion (ELISA); type: cell-based, human; settings: NCI-H716 cells, 1, 10 and 30 μM-treated groups
Procedure: To evaluate an effect of the cyclohexene derivative according to the present invention on promotion of glucagon-like peptide-1 (GLP-1) secretion, experiments were carried out, as follows.
NCI-H716 cells that were human enterocytes were plated on 12 wells at 1×10^6 cells per well. After 48 hours, the cells were starved in serum-free media for 2 hours, and treated with a varying concentration of siptagliptin that was a dipeptidyl peptidase-IV (DPP-IV) inhibitor, and the compounds of Comparative Example 1 (1, 10, 30 μM), Comparative Example 5 (10 μM), Example 48 (1, 10, 30 μM), and Example 291 (1, 10, 30 μM). After an hour, supernatants are recovered to determine an amount of the secreted GLP-1 peptide. The GLP-1 measurement was performed using an enzyme-linked immunosorbent assay (ELISA; Millipore, EGLP-35K), and the amount of the secreted GLP-1 peptide was indicated by the unit “pM”.
FIG. 3 is graph plotted for amounts of secreted GLP-1 when NCI-H716 cells that are human enterocytes are treated with the compounds of Comparative Examples 1 and 5 and Example 48 according to the present invention.

[6] = 1 h at 37° C., six concentrations, read-out: EC50

## CN(C)C(=N)NC(=N)N [Comparative Example 3, Metformin]
[1]; oral, 300 mg/kg
  weight-loss effect: the weight rather increased after 2 weeks of the oral administration

## CC(C)CC(N(C)C)C1(c2ccc(Cl)cc2)CCC1 (stereo not drawn) [Comparative Example 4, Sibutramine]
[1]; oral, 5 mg/kg
  weight-loss effect: the weight rather increased after 2 weeks of the oral administration

## CC(C)c1noc(N2CCC(COc3ccc(C4=CCC(C(=O)N5CC[C@@H](O)C5)CC4)cc3)CC2)n1 (stereo partly drawn) [Example 48, ((R)-3-hydroxypyrrolidin-1-yl)(4-(4-((1-(3-isopropyl-1,2,4-oxadiazol-5-yl)piperidin-4-yl)methoxy)phenyl)cyclohex-3-enyl)methanone]
[2]
  inhibition in vivo at 20 mg/kg: 21.2%
[3]
  LD50: ≥ 2000 mg/kg
[1]; oral, 10, 20, and 50 mg/kg
  weight-loss effect: persistent weight loss was observed for 4 weeks
[4]; [6]
  pEC50: 7.46
[4]; read-out: EC50 value
  pEC50: ≥ 7.30
[5]
  GLP-1 secretion compared with Comparative Example 1: induced GLP-1 secretion to a higher level than that of Comparative Example 1

## CCc1cnc(N2CCC(COc3ccc(C4=CCC(C(=O)N5CCC[C@H]5CO)CC4)cc3)CC2)nc1 (stereo partly drawn) [Example 119, (4-(4-((1-(5-ethylpyrimidin-2-yl)piperidin-4-yl)methoxy)phenyl)cyclohex-3-enyl)((S)-2-(hydroxymethyl)pyrrolidin-1-yl)methanone]
[3]
  LD50: ≥ 2000 mg/kg
[4]; [6]
  pEC50: 8.17
[4]; read-out: EC50 value
  pEC50: ≥ 7.30

## CC(C)c1noc(N2CCC(COc3ccc(C4=CCC(C(=O)N5CCC[C@@H]5CO)CC4)cc3)CC2)n1 (stereo partly drawn) [Example 147, ((R)-2-(hydroxymethyl)pyrrolidin-1-yl)(4-(4-((1-(3-isopropyl-1,2,4-oxadiazol-5-yl)piperidin-4-yl)methoxy)phenyl)cyclohex-3-enyl)methanone]
[2]
  inhibition in vivo at 20 mg/kg: 23.3%
[4]; [6]
  pEC50: 8.16
[4]; read-out: EC50 value
  pEC50: ≥ 7.30

## CC(C)c1noc(N2CCC(COc3ccc(C4=CCC(C(=O)N5CCC[C@H]5CO)CC4)cc3)CC2)n1 (stereo partly drawn) [Example 148, ((S)-2-(hydroxymethyl)pyrrolidin-1-yl)(4-(4-((1-(3-isopropyl-1,2,4-oxadiazol-5-yl)piperidin-4-yl)methoxy)phenyl)cyclohex-3-enyl)methanone]
[2]
  inhibition in vivo at 20 mg/kg: 22.6%
[4]; [6]
  pEC50: 7.89
[4]; read-out: EC50 value
  pEC50: ≥ 7.30

## CCc1cnc(N2CCC(COc3ccc(C4=CCC(C(=O)N5CCC(CO)CC5)CC4)cc3)CC2)nc1 (stereo not drawn) [Example 169, (4-(4-((1-(5-ethylpyrimidin-2-yl)piperidin-4-yl)methoxy)phenyl)cyclohex-3-enyl)(4-(hydroxymethyl)piperidin-1-yl)methanone hydrochloride]
[2]
  inhibition in vivo at 20 mg/kg: 21.7%
[4]; [6]
  pEC50: 8.05

## CCN(CCO)C(=O)C1CC=C(c2ccc(OCC3CCN(C(=O)OC(C)(C)C)CC3)cc2)CC1 (stereo not drawn) [Example 199, tert-butyl 4-((4-(4-(ethyl(2-hydroxyethyl)carbamoyl)cyclohex-1-enyl)phenoxy)methyl)piperidine-1-carboxylate]
[2]
  inhibition in vivo at 20 mg/kg: 20.9%
[4]; [6]
  pEC50: 8.10
[4]; read-out: EC50 value
  pEC50: ≥ 7.30

## CC(C)(C)OC(=O)N1CCC(COc2ccc(C3=CCC(C(=O)N4CCC(CCO)CC4)CC3)cc2)CC1 (stereo not drawn) [Example 200, tert-butyl 4-((4-(4-(4-(2-hydroxyethyl)piperidine-1-carbonyl)cyclohex-1-enyl)phenoxy)methyl)piperidine-1-carboxylate]
[2]
  inhibition in vivo at 20 mg/kg: 24%
[4]; [6]
  pEC50: 7.64
[4]; read-out: EC50 value
  pEC50: ≥ 7.30

## CC(C)(C)OC(=O)N1CCC(COc2ccc(C3=CCC(C(=O)N4CCCCC4)CC3)cc2)CC1 (stereo not drawn) [Example 204, tert-butyl 4-((4-(4-(piperidine-1-carbonyl)cyclohex-1-enyl)phenoxy)methyl)piperidine-1-carboxylate]
[2]
  inhibition in vivo at 20 mg/kg: 24%
[4]; [6]
  pEC50: 8.05
[4]; read-out: EC50 value
  pEC50: ≥ 7.30

## CCc1cnc(N2CCC(COc3ccc(C4=CCC(C(=O)N5CCC(C#N)CC5)CC4)cc3)CC2)nc1 (stereo not drawn) [Example 227, 1-(4-(4-((1-(5-ethylpyrimidin-2-yl)piperidin-4-yl)methoxy)phenyl)cyclohex-3-enecarbonyl)piperidine-4-carbonitrile]
[2]
  inhibition in vivo at 20 mg/kg: 26.8%
[4]; [6]
  pEC50: 8.22
[4]; read-out: EC50 value
  pEC50: ≥ 7.30

## CCc1cnc(N2CCC(COc3ccc(C4=CCC(C(=O)N5CCC(=NO)CC5)CC4)cc3)CC2)nc1 (stereo not drawn) [Example 277, (4-(4-((1-(5-ethylpyrimidin-2-yl)piperidin-4-yl)methoxy)phenyl)cyclohex-3-enyl)(4-(hydroxyimino)piperidin-1-yl)methanone]
[2]
  % AUC: 19.8 % AUC
[4]; [6]
  pEC50: 7.70
